Source: US11214594B2, “Antimicrobial peptide having synergistic antibacterial effect with antibiotics on multidrug resistant bacteria, and use thereof” (priority 2016, dated 2022)
Read-outs that look alike come from different tables or passages of the source. Where a SMILES comes first, the peptide text is derived from it.

Legend:
[1] = tested on: A. baumannii; test: microbe, parasite or virus in culture; type: cell-based, Acinetobacter baumannii
Procedure, shortened: (§1)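 Broth microdilution in MH medium: strains diluted to 2×10^6 CFU were mixed with equal volumes of twofold serial peptide dilutions in MH medium. MIC was taken as the lowest peptide concentration preventing bacterial growth.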

[2] = tested on: MDRAB 12035; test: microbe, parasite or virus in culture; type: cell-based, Acinetobacter baumannii
Procedure, shortened: as §1

[3] = tested on: gram-negative bacteria; test: MIC, summary statements for gram-negative bacteria; type: cell-based
Description: For the antibacterial activity, a minimal inhibitory concentration (MIC) of a peptide in which fungus bodies were not split in an MH medium with sufficient nutrients was measured.
Specifically, the strains described in the following [Table 2] were purchased and diluted with an MH medium such that the number of bacteria was 2×10^6 colony-forming units (CFUs), 100 μl of each of the diluted strains was aliquoted into a 96-well microtiter plate, and then 100 μl of a peptide solution diluted with the MH medium (solution diluted stepwise at 2: 1) was added to each well.

[4] = tested on: A. baumannii; test: MIC of antimicrobial peptide during combined treatment with antibiotic; type: cell-based, Acinetobacter baumannii
Procedure, shortened: (§2)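 Strains in MH medium at 2×10^6 CFU/ml were mixed with peptide diluted stepwise (2:1) from its MIC, then antibiotic dilutions in MH medium were added to give the antibiotic MIC. The reversed set-up, peptide titrated against fixed antibiotic, gave the peptide MIC.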

[5] = tested on: MDRAB 12035; test: as above; type: cell-based, Acinetobacter baumannii
Procedure, shortened: as §2

[6] = tested on: S. typhimurium; test: microbe, parasite or virus in culture; type: cell-based, Salmonella typhimurium
Procedure, shortened: as §1

[7] = tested on: E. coli; type: cell-based, Escherichia coli; conditions: E. coli
Procedure, shortened: as §2

[8] = tested on: MDREC 1229; type: cell-based, Escherichia coli
Procedure, shortened: as §2

[9] = tested on: MDRST 8009; type: cell-based, Salmonella typhimurium; conditions: agent alone
Procedure, shortened: as §1

[10] = tested on: MDRAB 12036; type: cell-based, Acinetobacter baumannii
Procedure, shortened: as §1

[11] = erythromycin 4 μg/ml (Conc./MIC 1/8)
[12] = erythromycin 8 μg/ml (Conc./MIC 1/4)
[13] = erythromycin 16 μg/ml (Conc./MIC 1/2)
[14] = erythromycin 32 μg/ml (Conc./MIC 1)
[15] = linezolid 32 μg/ml (Conc./MIC 1/8)
[16] = linezolid 64 μg/ml (Conc./MIC 1/4)
[17] = vancomycin 512 μg/ml (Conc./MIC 1/2)
[18] = vancomycin 1024 μg/ml (Conc./MIC 1)
[19] = linezolid 64 μg/ml (Conc./MIC 1/8)
[20] = linezolid 512 μg/ml (Conc./MIC 1)
[21] = with Erythromycin […] (Conc./MIC 1)
[22] = with Linezolid […] (Conc./MIC 1)
[23] = with Vancomycin 1024 μg/ml (Conc./MIC 1)
[24] = with Linezolid 512 μg/ml (Conc./MIC 1)

CC[C@H](C)[C@H](NC(=O)[C@H](CCCCN)NC(=O)[C@H](Cc1c[nH]c2ccccc12)NC(=O)[C@@H](N)CCCNC(=N)N)C(=O)N[C@@H](Cc1ccccc1)C(=O)N[C@@H](CCCCN)C(=O)N[C@@H](CCCCN)C(=O)N[C@H](C(=O)N1CCC[C@H]1C(=O)N[C@@H](CCCCN)C(=O)N[C@@H](Cc1ccccc1)C(=O)N[C@@H](CC(C)C)C(=O)N[C@@H](Cc1c[nH]cn1)C(=O)N[C@@H](CO)C(=O)N[C@@H](Cc1c[nH]c2ccccc12)C(=O)N[C@@H](CCCCN)C(=O)N[C@@H](CCCCN)C(=O)N[C@@H](Cc1c[nH]c2ccccc12)C(N)=O)[C@@H](C)CC [PapMA-4, RWK IFK KIP KFL HSW KKW-NH2] (H-RWKIFKKIPKFLHSWKKW-NH2; N-terminus assumed)
1 mg/L: Peptide MIC during treatment with antibiotic ([4]; linezolid […] (Conc./MIC 1/2)) | Peptide MIC during treatment with linezolid ([5]; linezolid […] (Conc./MIC 1/2))
32 mg/L: Minimal inhibitory concentration MIC [6] | Minimal inhibitory concentration MIC [9]
16 mg/L: Minimal inhibitory concentration MIC [1] | Peptide MIC, peptide alone [1] | Minimal inhibitory concentration MIC [2] | Peptide MIC, peptide alone [2] | Minimal inhibitory concentration MIC [10]
4 times: Antibacterial activity relative to PapMA-1 ([1]; A. baumannii and antibiotic-resistant strains thereof)
4 mg/L: Peptide MIC during treatment with antibiotic [4, 12] | Peptide MIC during treatment with antibiotic [4, 15] | Peptide MIC during treatment with antibiotic [4, 16] | Peptide MIC during treatment with erythromycin [5, 11] | Peptide MIC during treatment with erythromycin [5, 12] | Peptide MIC during treatment with linezolid [5, 19] | Peptide MIC during treatment with vancomycin ([5]; vancomycin […] (Conc./MIC 1/8))
8 mg/L: Peptide MIC during treatment with antibiotic [4, 11]
comparable to papiliocin or melittin: Antibacterial activity (in words) ([3]; gram-negative bacteria)
0.25 mg/L: Peptide MIC during treatment with antibiotic [4, 17] | Peptide MIC during treatment with antibiotic ([4]; vancomycin […] (Conc./MIC 1/4)) | Peptide MIC during treatment with vancomycin [5, 18]
2 mg/L: Peptide MIC during treatment with antibiotic [4, 13] | Peptide MIC during treatment with antibiotic ([4]; vancomycin […] (Conc./MIC 1/8)) | Peptide MIC during treatment with erythromycin [5, 13] | Peptide MIC during treatment with linezolid ([5]; linezolid […] (Conc./MIC 1/4)) | Peptide MIC during treatment with vancomycin [5, 17] | Peptide MIC during treatment with vancomycin ([5]; vancomycin […] (Conc./MIC 1/4))
0 mg/L: Peptide MIC during treatment with antibiotic [4, 14] | Peptide MIC during treatment with antibiotic ([4]; linezolid […] (Conc./MIC 1)) | Peptide MIC during treatment with antibiotic [4, 18] | Peptide MIC during treatment with erythromycin [5, 14] | Peptide MIC during treatment with linezolid [5, 20] | Peptide MIC [7, 21] | Peptide MIC [7, 22] | Peptide MIC [7, 23] | Peptide MIC [8, 21] | Peptide MIC [8, 24]

CC[C@H](C)[C@H](NC(=O)[C@H](CCCCN)NC(=O)[C@H](Cc1c[nH]c2ccccc12)NC(=O)[C@@H](N)CCCNC(=N)N)C(=O)N[C@@H](Cc1ccccc1)C(=O)N[C@@H](CCCCN)C(=O)N[C@@H](CCCCN)C(=O)N[C@H](C(=O)N1CCC[C@H]1C(=O)N[C@@H](CCCCN)C(=O)N[C@@H](CC(C)C)C(=O)N[C@@H](CC(C)C)C(=O)N[C@@H](Cc1c[nH]cn1)C(=O)N[C@@H](CO)C(=O)N[C@@H](Cc1ccccc1)C(=O)N[C@@H](CCCCN)C(=O)N[C@@H](CCCCN)C(=O)N[C@@H](Cc1ccccc1)C(N)=O)[C@@H](C)CC [PapMA-7, RWK IFK KIP KLL HSF KKF-NH2] (H-RWKIFKKIPKLLHSFKKF-NH2; N-terminus assumed)
2 mg/L: Peptide MIC during treatment with antibiotic [4, 11] | Peptide MIC during treatment with antibiotic [4, 12] | Peptide MIC during treatment with antibiotic [4, 15] | Peptide MIC during treatment with antibiotic [4, 16] | Peptide MIC during treatment with antibiotic ([4]; vancomycin […] (Conc./MIC 1/8)) | Peptide MIC during treatment with erythromycin [5, 11]
32 mg/L: Minimal inhibitory concentration MIC [2] | Peptide MIC, peptide alone [2] | Minimal inhibitory concentration MIC [9] | Minimal inhibitory concentration MIC [10]
0.25 mg/L: Peptide MIC during treatment with antibiotic [4, 17] | Peptide MIC during treatment with antibiotic ([4]; vancomycin […] (Conc./MIC 1/4)) | Peptide MIC during treatment with vancomycin [5, 18]
same or higher: Antibacterial activity relative to PapMA-1, PapMA-2, PapMA-3 and PapMA-4 ([3]; most of the gram-negative bacteria)
1 mg/L: Peptide MIC during treatment with antibiotic [4, 13] | Peptide MIC during treatment with antibiotic ([4]; linezolid […] (Conc./MIC 1/2)) | Peptide MIC during treatment with erythromycin [5, 12] | Peptide MIC during treatment with erythromycin [5, 13] | Peptide MIC during treatment with linezolid [5, 19] | Peptide MIC during treatment with linezolid ([5]; linezolid […] (Conc./MIC 1/2)) | Peptide MIC during treatment with linezolid ([5]; linezolid […] (Conc./MIC 1/4)) | Peptide MIC during treatment with vancomycin ([5]; vancomycin […] (Conc./MIC 1/4)) | Peptide MIC during treatment with vancomycin ([5]; vancomycin […] (Conc./MIC 1/8))
0 mg/L: Peptide MIC during treatment with antibiotic [4, 14] | Peptide MIC during treatment with antibiotic ([4]; linezolid […] (Conc./MIC 1)) | Peptide MIC during treatment with antibiotic [4, 18] | Peptide MIC during treatment with erythromycin [5, 14] | Peptide MIC during treatment with linezolid [5, 20] | Peptide MIC [7, 21] | Peptide MIC [7, 22] | Peptide MIC [7, 23] | Peptide MIC [8, 21] | Peptide MIC [8, 24]
0.5 mg/L: Peptide MIC during treatment with vancomycin [5, 17]
16 mg/L: Minimal inhibitory concentration MIC [1] | Peptide MIC, peptide alone [1] | Minimal inhibitory concentration MIC [6]
